In assay [1] the target is GABAa receptor. In words: GABAa receptor binding assay, displacement of 3H-RO15-1788 [3H-Flumazenil] in rat cortical tissue. The following applies: 0.5 nM 3H-RO15-1788 [3H-Flumazenil], 30 min at 4° C., pH 7.4. The protocol: The pharmaceutical utility of compounds of this invention are indicated by the following assay for GABAa receptor activity.
Assays are carried out as described in Thomas and Tallman (J. Bio. Chem. 156: 9838-9842, J. Neurosci. 3:433-440, 1983). Rat cortical tissue is dissected and homogenized in 25 volumes (w/v) of 0.05M Tris HCl buffer (pH 7.4 at 4° C.). The tissue homogenate is centrifuged in cold (4°) at 20,000×g for 20'. The supernatant is decanted and the pellet is rehomogenized in the same volume of buffer and again centrifuged at 20,000×g. The supernatant is decanted and the pellet is frozen at -20° C. overnight. The pellet is then thawed and rehomogenized in 25 volume (original wt/vol) of buffer and the procedure is carried out twice. The pellet is finally resuspended in 50 volumes (w/vol of 0.05M Tris HCl buffer (pH 7.4 at […]).
Incubations contain […] of radioligand 0.5 nM (^3 H-RO15-1788 [^3 H-Flumazenil] specific activity 80 Ci/mmol), drug or blocker and buffer to a total volume of […]. Incubations are carried for 30 min at 4° C. then are rapidly filtered through GFB filters to separate free and bound ligand. Filters are washed twice with fresh 0.05M Tris HCl buffer (pH 7.4 at 4° C.) and counted in a liquid scintillation counter. […] diazepam is added to some tubes to determine nonspecific binding. Data are collected in triplicate determinations, averaged and % inhibition of total specific binding is calculated. Total Specific Binding=Total-Nonspecific. In some cases, the amounts of unlabeled drugs is varied and total displacement curves of binding are carried out. Data are converted to a form for the calculation of IC50 and Hill Coefficient (nH).
On the technique in general: In a radioligand displacement assay an active substance lowers the binding of a labelled ligand.

Assay [2] concerns clonazepam-sensitive benzodiazepine binding site. The following applies: cited from earlier work.

By IC50 is commonly meant the concentration that gives 50% inhibition. A high value points to weaker potency in that assay.

In the case of `O=c1[nH]c2ccncc2c2nc(-c3ccccc3)cn12` [Compound 2, 2-Phenyl-imidazo[1,2-c]pyrido[3,4-e]pyrimidin-5(6H)-one], the IC50 in assay [1] worked out at 0.169 µM.
For the compound `O=c1[nH]c2ccncc2c2nc(-c3ccccc3F)cn12` [Compound 1, 2-(2-Fluorophenyl)-imidazol[1,2-c]pyrido[3,4-e]pyrimidin-5(6H)-one], the IC50 in assay [1] stood at 0.042 µM.
Regarding `O=c1[nH]c2cccnc2c2nc(-c3ccccc3)cn12` [Compound 15, 2-Phenylimidazo[1,2-c]pyrido[2,3-e]pyrimidin-5(6H)-one], the IC50 in assay [1] was 0.132 µM.
Consider `CN1CCc2cc3c(cc2[C@H]1[C@@H]1OC(=O)c2c1ccc1c2OCO1)OCO3` [(+) bicuculline], for which the “block of enhancement of benzodiazepine binding by GABA agonists” value in assay [2] is recorded as “blocked”.
Take `CN1CCc2cc3c(cc2[C@@H]1[C@H]1OC(=O)c2c1ccc1c2OCO1)OCO3` [(-) bicuculline]: the “block of enhancement of benzodiazepine binding by GABA agonists” value in assay [2] is “much less active”.

Source of the values: patent US5212310A (priority 1991, dated 1993).
